Experimental data taken from patent US20110059033A1, “ULTRAVIOLET ABSORBING COMPOSITION” (FUJIFILM Corporation, priority 2009, published 2011).

Test: Maximum absorption wavelength (λmax) of the illustrative compounds in solvent
Format: physicochemical
Conditions: EtOAc
In the case of `CCCCC(CC)C(=O)Oc1ccc(OC(=O)C(CC)CCCC)c2c1SC(=C(C#N)C(=O)C(C)(C)C)S2` (stereo not drawn) [S-01], the “maximum absorption wavelength (λmax)” value is reported as 375 nm.
With `CCCCC(CC)COc1ccc(OCC(CC)CCCC)c2c1SC(=C(C#N)C(=O)C(C)(C)C)S2` (stereo not drawn) [S-06] the “maximum absorption wavelength (λmax)” value was 382 nm.
In the case of `CCCCC(CC)C(=O)Oc1ccc(OC(=O)C(CC)CCCC)c2c1SC(=C(C#N)C#N)S2` (stereo not drawn) [S-17], the “maximum absorption wavelength (λmax)” value is reported as 363 nm.
In the case of `CCCCC(CC)C(=O)Oc1ccc(OC(=O)C(CC)CCCC)c2c1SC(=C(C#N)C(N)=O)S2` (stereo not drawn) [S-20], the “maximum absorption wavelength (λmax)” value is reported as 357 nm.
In the case of `CCCCC(CC)COc1ccc(OCC(CC)CCCC)c2c1SC(=C(C#N)C#N)S2` (stereo not drawn) [S-26], the “maximum absorption wavelength (λmax)” value is reported as 369 nm.
For `CC(CCOc1ccc(OCCC(C)CC(C)(C)C)c2c1SC(=C(C#N)C#N)S2)CC(C)(C)C` (stereo not drawn) [S-27], the “maximum absorption wavelength (λmax)” value was 369 nm.
For `CC(CCOc1ccc(OCCC(C)CC(C)(C)C)c2c1SC(=C(C#N)C(=O)C(C)(C)C)S2)CC(C)(C)C` (stereo not drawn) [S-28], the “maximum absorption wavelength (λmax)” value was 382 nm.
In the case of `CC(C)(C)C(=O)C(C#N)=C1Sc2c(OCCO)ccc(OCCO)c2S1` [S-29], the “maximum absorption wavelength (λmax)” value is reported as 382 nm.

Same assay, conditions: MeOH
In the case of `N#CC(C#N)=C1Sc2c(OCCO)ccc(OCCO)c2S1` [S-30], the “maximum absorption wavelength (λmax)” value is reported as 369 nm.
